Assay results reported in patent US8449898B2 (priority 2007, dated 2013).
Read-outs that look alike come from different tables or passages of the source.

How the values were obtained:
[1] = tested on: Phytophthora infestans (the causal agent of tomato late blight); test: whole plant or invertebrate; type: in vivo; conditions: for TLB Obsd (disease control rating): Table B
[2] = tested on: Pseudoperonospora cubensis (the causal agent of cucumber downy mildew); test: Test B: cucumber downy mildew, preventive spray on cucumber seedlings; type: in vivo; conditions: for CDM Obsd (disease control rating): Table B
[3] = component (b) alone 0.08 ppm (Compound 1 0 ppm)
[4] = component (b) alone 0.4 ppm (Compound 1 0 ppm)
[5] = component (b) alone 2 ppm (Compound 1 0 ppm)
[6] = component (b) alone 10 ppm (Compound 1 0 ppm)
[7] = component (b) alone 40 ppm (Compound 1 0 ppm)
[8] = Pseudoperonospora cubensis, component (b) alone 0.4 ppm (Compound 1 0 ppm), read-out: CDM Obsd
[9] = Pseudoperonospora cubensis, component (b) alone 2 ppm (Compound 1 0 ppm), read-out: CDM Obsd
[10] = Pseudoperonospora cubensis, component (b) alone 10 ppm (Compound 1 0 ppm), read-out: CDM Obsd
[11] = Table D, component (b) alone at 2 ppm
[12] = Table D, component (b) alone at 10 ppm
[13] = Table D, component (b) alone at 40 ppm
[14] = Table D, component (b) alone at 200 ppm
[15] = Table D, component (b) alone at 500 ppm
[16] = component (b) alone 200 ppm (Compound 1 0 ppm)
[17] = component (b) alone 0.016 ppm (Compound 1 0 ppm)

## CO/C=C(/C(=O)OC)c1ccccc1Oc1cc(Oc2ccccc2C#N)ncn1 [azoxystrobin]
[1]; component (b) alone 0.08 ppm
  TLB Obsd (disease control rating): 0%
[1]; component (b) alone 0.4 ppm
  TLB Obsd (disease control rating): 16%
[1]; component (b) alone 2 ppm
  TLB Obsd (disease control rating): 26%
[1]; component (b) alone 10 ppm
  TLB Obsd (disease control rating): 58%
[1]; component (b) alone 40 ppm
  TLB Obsd (disease control rating): 99%
[1]; component (b) alone, 0.4 ppm
  TLB Obsd (observed effect, tomato late blight): 29
[1]; component (b) alone, 2 ppm
  TLB Obsd (observed effect, tomato late blight): 56
[1]; component (b) alone, 10 ppm
  TLB Obsd (observed effect, tomato late blight): 90
[1]; component (b) alone, 40 ppm
  TLB Obsd (observed effect, tomato late blight): 100
[2]; component (b) alone 0.08 ppm
  CDM Obsd (disease control rating): 64%
[2]; component (b) alone 0.4 ppm
  CDM Obsd (disease control rating): 80%
[2]; component (b) alone 2 ppm
  CDM Obsd (disease control rating): 100%
[2]; component (b) alone 10 ppm
  CDM Obsd (disease control rating): 100%
[2]; component (b) alone 40 ppm
  CDM Obsd (disease control rating): 100%
[2]; [3]
  CDM Obsd: 26%
[2]; [4]
  CDM Obsd: 40%
[2]; [5]
  CDM Obsd: 100%
[2]; [6]
  CDM Obsd: 100%
[2]; [7]
  CDM Obsd: 100%
[2]; component (b) alone, 0.4 ppm
  CDM Obsd (observed effect, cucumber downy mildew): 0
[2]; component (b) alone, 2 ppm
  CDM Obsd (observed effect, cucumber downy mildew): 70
[2]; component (b) alone, 10 ppm
  CDM Obsd (observed effect, cucumber downy mildew): 100
[2]; component (b) alone, 40 ppm
  CDM Obsd (observed effect, cucumber downy mildew): 100

## O=C1c2ccccc2C(=O)N1SC(Cl)(Cl)Cl [folpet]
[1]; Phytophthora infestans, read-out: TLB Obsd (disease control rating), Table C, component (b) alone 0.4 ppm
  pest or weed control at 0.4 ppm: 0%
[1]; Phytophthora infestans, read-out: TLB Obsd (disease control rating), Table C, component (b) alone 2 ppm
  pest or weed control at 2 ppm: 9%
[1]; Phytophthora infestans, read-out: TLB Obsd (disease control rating), Table C, component (b) alone 10 ppm
  pest or weed control at 10 ppm: 9%
[1]; Phytophthora infestans, read-out: TLB Obsd (disease control rating), Table C, component (b) alone 40 ppm
  pest or weed control at 40 ppm: 24%
[1]; Phytophthora infestans, read-out: TLB Obsd (disease control rating), Table C, component (b) alone 200 ppm
  pest or weed control at 200 ppm: 75%
[1]; Phytophthora infestans, read-out: TLB Obsd (observed effect, tomato late blight), component (b) alone, 0.04 ppm
  pest or weed control at 0.04 ppm: 0%
[1]; Phytophthora infestans, read-out: TLB Obsd (observed effect, tomato late blight), component (b) alone, 2 ppm
  pest or weed control at 2 ppm: 8%
[1]; Phytophthora infestans, read-out: TLB Obsd (observed effect, tomato late blight), component (b) alone, 10 ppm
  pest or weed control at 10 ppm: 31%
[1]; Phytophthora infestans, read-out: TLB Obsd (observed effect, tomato late blight), component (b) alone, 40 ppm
  pest or weed control at 40 ppm: 46%
[1]; Phytophthora infestans, read-out: TLB Obsd (observed effect, tomato late blight), component (b) alone, 200 ppm
  pest or weed control at 200 ppm: 93%
[2]; Pseudoperonospora cubensis, Table C, component (b) alone 0.4 ppm, read-out: CDM Obsd (disease control rating)
  pest or weed control at 0.4 ppm: 47%
[2]; Pseudoperonospora cubensis, Table C, component (b) alone 2 ppm, read-out: CDM Obsd (disease control rating)
  pest or weed control at 2 ppm: 47%
[2]; Pseudoperonospora cubensis, Table C, component (b) alone 10 ppm, read-out: CDM Obsd (disease control rating)
  pest or weed control at 10 ppm: 47%
[2]; Pseudoperonospora cubensis, Table C, component (b) alone 40 ppm, read-out: CDM Obsd (disease control rating)
  pest or weed control at 40 ppm: 92%
[2]; Pseudoperonospora cubensis, Table C, component (b) alone 200 ppm, read-out: CDM Obsd (disease control rating)
  pest or weed control at 200 ppm: 95%
[2]; [8]
  pest or weed control at 0.4 µg/mL: 47%
[2]; [9]
  pest or weed control at 2 µg/mL: 47%
[2]; [10]
  pest or weed control at 10 µg/mL: 47%
[2]; Pseudoperonospora cubensis, component (b) alone 40 ppm (Compound 1 0 ppm), read-out: CDM Obsd
  pest or weed control at 40 µg/mL: 47%
[2]; Pseudoperonospora cubensis, component (b) alone 200 ppm (Compound 1 0 ppm), read-out: CDM Obsd
  pest or weed control at 200 µg/mL: 88%
[2]; Pseudoperonospora cubensis, component (b) alone, 0.04 ppm, read-out: CDM Obsd (observed effect, cucumber downy mildew)
  pest or weed control at 0.04 ppm: 0%
[2]; Pseudoperonospora cubensis, component (b) alone, 2 ppm, read-out: CDM Obsd (observed effect, cucumber downy mildew)
  pest or weed control at 2 ppm: 0%
[2]; Pseudoperonospora cubensis, component (b) alone, 10 ppm, read-out: CDM Obsd (observed effect, cucumber downy mildew)
  pest or weed control at 10 ppm: 44%
[2]; Pseudoperonospora cubensis, component (b) alone, 40 ppm, read-out: CDM Obsd (observed effect, cucumber downy mildew)
  pest or weed control at 40 ppm: 74%
[2]; Pseudoperonospora cubensis, component (b) alone, 200 ppm, read-out: CDM Obsd (observed effect, cucumber downy mildew)
  pest or weed control at 200 ppm: 87%

## [Cu+2].[OH-].[OH-] [copper hydroxide]
[1]; [11]
  TLB Obsd: 32%
[1]; [12]
  TLB Obsd: 48%
[1]; [13]
  TLB Obsd: 40%
[1]; [14]
  TLB Obsd: 70%
[1]; [15]
  TLB Obsd: 91%
[1]; component (b) alone, 2 ppm
  TLB Obsd (observed effect, tomato late blight): 22
[1]; component (b) alone, 10 ppm
  TLB Obsd (observed effect, tomato late blight): 36
[1]; component (b) alone, 40 ppm
  TLB Obsd (observed effect, tomato late blight): 50
[1]; component (b) alone, 200 ppm
  TLB Obsd (observed effect, tomato late blight): 71
[1]; component (b) alone, 500 ppm
  TLB Obsd (observed effect, tomato late blight): 77
[2]; [11]
  CDM Obsd: 53%
[2]; [12]
  CDM Obsd: 63%
[2]; [13]
  CDM Obsd: 85%
[2]; [14]
  CDM Obsd: 85%
[2]; [15]
  CDM Obsd: 88%
[2]; [5]
  CDM Obsd: 47%
[2]; [6]
  CDM Obsd: 47%
[2]; [7]
  CDM Obsd: 47%
[2]; [16]
  CDM Obsd: 85%
[2]; component (b) alone 500 ppm (Compound 1 0 ppm)
  CDM Obsd: 93%
[2]; component (b) alone, 2 ppm
  CDM Obsd (observed effect, cucumber downy mildew): 0
[2]; component (b) alone, 10 ppm
  CDM Obsd (observed effect, cucumber downy mildew): 0
[2]; component (b) alone, 40 ppm
  CDM Obsd (observed effect, cucumber downy mildew): 0
[2]; component (b) alone, 200 ppm
  CDM Obsd (observed effect, cucumber downy mildew): 29
[2]; component (b) alone, 500 ppm
  CDM Obsd (observed effect, cucumber downy mildew): 37

## COC(=O)CC(NC(=O)[C@@H](NC(=O)OC(C)C)C(C)C)c1ccc(Cl)cc1 (stereo partly shown) [valiphenal]
[1]; component (b) alone, 0.016 ppm
  TLB Obsd: 8%
[1]; component (b) alone, 0.08 ppm
  TLB Obsd: 8%
[1]; component (b) alone, 0.4 ppm
  TLB Obsd: 8%
[1]; component (b) alone, 2 ppm
  TLB Obsd: 32%
[1]; component (b) alone, 10 ppm
  TLB Obsd: 99%
[2]; [17]
  CDM Obsd: 65%
[2]; [3]
  CDM Obsd: 47%
[2]; [4]
  CDM Obsd: 47%
[2]; [5]
  CDM Obsd: 47%
[2]; [6]
  CDM Obsd: 57%
[2]; component (b) alone, 0.016 ppm
  CDM Obsd: 31%
[2]; component (b) alone, 0.08 ppm
  CDM Obsd: 16%
[2]; component (b) alone, 0.4 ppm
  CDM Obsd: 16%
[2]; component (b) alone, 2 ppm
  CDM Obsd: 53%
[2]; component (b) alone, 10 ppm
  CDM Obsd: 100%

## Cc1ccc(-c2c(Cl)nc(C#N)n2S(=O)(=O)N(C)C)cc1 [cyazofamid]
[1]; Phytophthora infestans, read-out: TLB Obsd, component (b) alone, 0.016 ppm
  pest or weed control at 0.016 ppm: 25%
[1]; Phytophthora infestans, read-out: TLB Obsd, component (b) alone, 0.08 ppm
  pest or weed control at 0.08 ppm: 52%
[1]; Phytophthora infestans, read-out: TLB Obsd, component (b) alone, 0.4 ppm
  pest or weed control at 0.4 ppm: 58%
[1]; Phytophthora infestans, read-out: TLB Obsd, component (b) alone, 2 ppm
  pest or weed control at 2 ppm: 100%
[1]; Phytophthora infestans, read-out: TLB Obsd, component (b) alone, 10 ppm
  pest or weed control at 10 ppm: 100%
[2]; Pseudoperonospora cubensis, component (b) alone 0.016 ppm (Compound 1 0 ppm), read-out: CDM Obsd
  pest or weed control at 0.016 µg/mL: 47%
[2]; Pseudoperonospora cubensis, component (b) alone 0.08 ppm (Compound 1 0 ppm), read-out: CDM Obsd
  pest or weed control at 0.08 µg/mL: 100%
[2]; [8]
  pest or weed control at 0.4 µg/mL: 100%
[2]; [9]
  pest or weed control at 2 µg/mL: 100%
[2]; [10]
  pest or weed control at 10 µg/mL: 100%
[2]; Pseudoperonospora cubensis, component (b) alone, 0.016 ppm, read-out: CDM Obsd
  pest or weed control at 0.016 ppm: 43%
[2]; Pseudoperonospora cubensis, component (b) alone, 0.08 ppm, read-out: CDM Obsd
  pest or weed control at 0.08 ppm: 57%
[2]; Pseudoperonospora cubensis, component (b) alone, 0.4 ppm, read-out: CDM Obsd
  pest or weed control at 0.4 ppm: 100%
[2]; Pseudoperonospora cubensis, component (b) alone, 2 ppm, read-out: CDM Obsd
  pest or weed control at 2 ppm: 100%
[2]; Pseudoperonospora cubensis, component (b) alone, 10 ppm, read-out: CDM Obsd
  pest or weed control at 10 ppm: 100%

## CC1CCN(c2c(-c3c(F)cc(F)cc3F)c(Cl)nc3ncnn23)CC1 [BAS600, 5-chloro-6-(2,4,6-trifluorophenyl)-7-(4-methylpiperidin-1-yl)[1,2,4]triazolo[1,5-α]pyrimidine]
[1]; [11]
  TLB Obsd: 26%
[1]; [12]
  TLB Obsd: 6%
[1]; [13]
  TLB Obsd: 56%
[1]; [14]
  TLB Obsd: 20%
[1]; [15]
  TLB Obsd: 12%
[1]; component (b) alone, 2 ppm
  TLB Obsd: 7%
[1]; component (b) alone, 10 ppm
  TLB Obsd: 0%
[1]; component (b) alone, 40 ppm
  TLB Obsd: 15%
[1]; component (b) alone, 200 ppm
  TLB Obsd: 30%
[1]; component (b) alone, 500 ppm
  TLB Obsd: 15%
[2]; [11]
  CDM Obsd: 47%
[2]; [12]
  CDM Obsd: 99%
[2]; [13]
  CDM Obsd: 100%
[2]; [14]
  CDM Obsd: 100%
[2]; [15]
  CDM Obsd: 100%
[2]; [5]
  CDM Obsd: 0%
[2]; [6]
  CDM Obsd: 72%
[2]; [7]
  CDM Obsd: 100%
[2]; [16]
  CDM Obsd: 100%
[2]; component (b) alone, 2 ppm
  CDM Obsd: 0%
[2]; component (b) alone, 10 ppm
  CDM Obsd: 99%
[2]; component (b) alone, 40 ppm
  CDM Obsd: 100%
[2]; component (b) alone, 200 ppm
  CDM Obsd: 100%
[2]; component (b) alone, 500 ppm
  CDM Obsd: 100%

## CCNc1nc(CC)c(C(=O)NC(C#N)c2cccs2)s1 (stereo not shown) [ethaboxam]
[1]; component (b) alone, 0.016 ppm
  TLB Obsd: 22%
[1]; component (b) alone, 0.08 ppm
  TLB Obsd: 15%
[1]; component (b) alone, 0.4 ppm
  TLB Obsd: 95%
[1]; component (b) alone, 2 ppm
  TLB Obsd: 87%
[1]; component (b) alone, 10 ppm
  TLB Obsd: 100%
[2]; [17]
  CDM Obsd: 47%
[2]; [3]
  CDM Obsd: 47%
[2]; [4]
  CDM Obsd: 47%
[2]; [5]
  CDM Obsd: 82%
[2]; [6]
  CDM Obsd: 100%
[2]; component (b) alone, 0.016 ppm
  CDM Obsd: 0%
[2]; component (b) alone, 0.08 ppm
  CDM Obsd: 0%
[2]; component (b) alone, 0.4 ppm
  CDM Obsd: 41%
[2]; component (b) alone, 2 ppm
  CDM Obsd: 100%
[2]; component (b) alone, 10 ppm
  CDM Obsd: 100%
